Data set [1] deals with Leishmania donovani, MHOM-ET-67/L82 strain, amastigote/axenic stage. The data set can be described thus: In vitro activity against L. donovani. To be noted: Leishmania donovani, MHOM-ET-67/L82, axenic amastigotes; average of two independent assays; read-out: IC50 L. don. It counts as cell-based. On the procedure:
(§1) The in vitro activities against the protozoan parasites T.b. rhodesiense, T. cruzi, L. donovani, and P. falciparum and cytotoxicity assessment against L6 cells were determined as reported elsewhere.

Data set [2] deals with L6 rat skeletal myoblast cell line. Put plainly: Cytotoxicity against L6 cells. It counts as cell-based. To be noted: Rattus norvegicus, Myoblast, cytotoxicity, L6 rat skeletal myoblasts; average of two independent assays; read-out: IC50 L6. As to the method:
as §1

Data set [3] concerns Plasmodium falciparum, K1 strain, IEF stage. The data set can be described thus: In vitro activity against P. falciparum K1. It counts as cell-based. The settings on record: for IC50: Plasmodium falciparum, K1 dual drug resistant strain, IEF stage, average of two independent assays, read-out: IC50 P. falc. K1; for SI Pf: Selectivity index for P. falciparum = IC50 L6/IC50 Pf. On the procedure: as §1

The subject of data set [4] is Trypanosoma brucei rhodesiense, STIB 900 strain, trypomastigotes stage. The data set can be described thus: In vitro activity against T. b. rhodesiense. It counts as cell-based. The settings on record: for IC50: Trypanosoma brucei, STIB 900, trypomastigotes, average of two independent assays, read-out: IC50 T. b. rhod. On the procedure: as §1
The test system of data set [5] is Trypanosoma cruzi, Tulahuen C4 strain, amastigotes stage. Put plainly: In vitro activity against T. cruzi. It counts as cell-based. The settings on record: Trypanosoma cruzi, TULAHUEN, Tulahuen C4, amastigotes; average of two independent assays; read-out: IC50 T. cruzi. On the procedure: as §1

With `C#CCNC(=O)c1ccc2c(n1)C(=O)C1=C(C2=O)S(=O)(=O)CCN1` [Compound 7h, N-(Prop-2-yn-1-yl)-5,10-dioxo-3,4,5,10-tetrahydro-2H-[1,4]thiazino[2,3-g]quinoline-7-carboxamide 1,1-Dioxide], the melting point (in general, the temperature, or range, at which the solid turns liquid) was 280 °C (dec.). Also, the IC50 (commonly the concentration at which inhibition is half-maximal) in data set [1] is 170 µM. In addition, the IC50 in data set [2] came to 41 µM. In data set [3], the IC50 was found to be 2400 nM and the “SI Pf” value was determined as 17. Further, the half-maximal inhibitory concentration (IC50) in data set [4] is over 150 µM. Further, in data set [5], the IC50 was 53 µM.

`COC(=O)CNC(=O)c1ccc2c(n1)C(=O)C1=C(C2=O)S(=O)(=O)CCN1` [Compound 7j, Methyl 2-(1,1-Dioxido-5,10-dioxo-3,4,5,10-tetrahydro-2H-[1,4]thiazino[2,3-g]quinoline-7-carboxamido)acetate]: the melting point is 200 °C (dec.). Moreover, in data set [1], the IC50 is over 260 µM. For the same compound, the IC50 in data set [2] was determined as 110 µM. Also, in data set [3], the IC50 was determined as 3400 nM and the “SI Pf” value was determined as 31. The IC50 in data set [4] is 120 µM. The IC50 in data set [5] was 250 µM.

For `CCCCNC(=O)c1ccc2c(n1)C(=O)C1=C(C2=O)S(=O)(=O)C=CN1` [Compound 8a, N-n-Butyl-5,10-dioxo-5,10-dihydro-4H-[1,4]thiazino[2,3-g]quinoline-7-carboxamide 1,1-Dioxide], the melting point is 200 °C (dec.). Also, the IC50 in data set [1] was over 280 µM. For the same compound, the IC50 in data set [2] was found to be 23 µM. Besides, in data set [3], the IC50 worked out at 700 nM and the “SI Pf” value is reported as 33. In addition, the IC50 in data set [4] turned out to be 3.7 µM. In data set [5], the half-maximal inhibitory concentration (IC50) came out at 63 µM.

In the case of `CCCCCNC(=O)c1ccc2c(n1)C(=O)C1=C(C2=O)S(=O)(=O)C=CN1` [Compound 8b, N-n-Pentyl-5,10-dioxo-5,10-dihydro-4H-[1,4]thiazino[2,3-g]quinoline-7-carboxamide 1,1-Dioxide], the melting point is 280 °C (dec.). In data set [1], the IC50 is over 270 µM. Moreover, the IC50 in data set [2] was 4.8 µM. In data set [3], the IC50 is 1500 nM and the “SI Pf” value is recorded as 3. Also, in data set [4], the IC50 is 3.6 µM. Moreover, the IC50 in data set [5] was 48 µM.

As to `CCCCCCCCNC(=O)c1ccc2c(n1)C(=O)C1=C(C2=O)S(=O)(=O)C=CN1` [Compound 8c, N-n-Octyl-5,10-dioxo-5,10-dihydro-4H-[1,4]thiazino[2,3-g]quinoline-7-carboxamide 1,1-Dioxide], the melting point was 280 °C (dec.). Moreover, the IC50 in data set [1] was 53 µM. Besides, the IC50 in data set [2] turned out to be 6.5 µM. Besides, in data set [3], the IC50 was determined as 980 nM and the “SI Pf” value was found to be 6. Moreover, the IC50 in data set [4] came to 2.4 µM. In addition, the IC50 in data set [5] turned out to be 42 µM.

As for `O=C(NCc1ccccc1)c1ccc2c(n1)C(=O)C1=C(C2=O)S(=O)(=O)C=CN1` [Compound 8d, N-Benzyl-5,10-dioxo-5,10-dihydro-4H-[1,4]thiazino[2,3-g]quinoline-7-carboxamide 1,1-Dioxide], the melting point was 280 °C (dec.). Moreover, in data set [1], the IC50 was over 250 µM. For the same compound, the IC50 in data set [2] amounted to 34 µM. In data set [3], the IC50 is 4700 nM and the “SI Pf” value was 7. In addition, the IC50 in data set [4] was 4.2 µM. Besides, in data set [5], the IC50 worked out at 160 µM.

Turning to `O=C(NCCc1ccccc1)c1ccc2c(n1)C(=O)C1=C(C2=O)S(=O)(=O)C=CN1` [Compound 8e, N-Phenethyl-5,10-dioxo-5,10-dihydro-4H-[1,4]thiazino[2,3-g]quinoline-7-carboxamide 1,1-Dioxide], the melting point is 290 °C (dec.). Also, the IC50 in data set [1] was 160 µM. Besides, the IC50 in data set [2] amounted to 52 µM. In data set [3], the IC50 came to 6500 nM and the “SI Pf” value is recorded as 8. Besides, the IC50 in data set [4] worked out at 0.67 µM. Further, the “SI (T. brucei rhodesiense)” value in data set [4] (selectivity towards T. brucei rhodesiense versus L6) was 78. Moreover, the IC50 in data set [5] amounted to 140 µM.

For the compound `O=C(NCCCc1ccccc1)c1ccc2c(n1)C(=O)C1=C(C2=O)S(=O)(=O)C=CN1` [Compound 8f, N-(3-Phenylpropyl)-5,10-dioxo-5,10-dihydro-4H-[1,4]thiazino[2,3-g]quinoline-7-carboxamide 1,1-Dioxide], the melting point was 230 °C (dec.). For the same compound, the IC50 in data set [1] is over 240 µM. Besides, the IC50 in data set [2] was found to be 6.5 µM. Further, in data set [3], the IC50 was determined as 1200 nM and the “SI Pf” value came to 5. Besides, the IC50 in data set [4] worked out at 5.9 µM. Further, in data set [5], the IC50 was found to be 59 µM.

As for `CC(C)=CCC/C(C)=C/CNC(=O)c1ccc2c(n1)C(=O)C1=C(C2=O)S(=O)(=O)C=CN1` [Compound 8g, (E)-N-(3,7-Dimethylocta-2,6-dien-1-yl)-5,10-dioxo-5,10-dihydro-4H-[1,4]thiazino[2,3-g] quinoline-7-carboxamide 1,1-Dioxide], the melting point is 280 °C (dec.). Besides, the half-maximal inhibitory concentration (IC50) in data set [1] was determined as 150 µM. The IC50 in data set [2] came out at 4.9 µM. In addition, in data set [3], the IC50 was 1100 nM and the “SI Pf” value was 4. Further, the IC50 in data set [4] amounted to 2.5 µM. The IC50 in data set [5] was 42 µM.

As to `C#CCNC(=O)c1ccc2c(n1)C(=O)C1=C(C2=O)S(=O)(=O)C=CN1` [Compound 8h, N-(Prop-2-yn-1-yl)-5,10-dioxo-5,10-dihydro-4H-[1,4]thiazino[2,3-g]quinoline-7-carboxamide 1,1-Dioxide], the melting point was 230 °C (dec.). Besides, the IC50 in data set [1] stood at 230 µM. Besides, the IC50 in data set [2] was determined as 50 µM. For the same compound, in data set [3], the IC50 amounted to 1700 nM and the “SI Pf” value is recorded as 29. For the same compound, in data set [4], the IC50 stood at 10 µM. The IC50 in data set [5] turned out to be 150 µM.

For `COCCNC(=O)c1ccc2c(n1)C(=O)C1=C(C2=O)S(=O)(=O)C=CN1` [Compound 8i, N-(2-Methoxyethyl)-5,10-dioxo-5,10-dihydro-4H-[1,4]thiazino[2,3-g] quinoline-7-carboxamide 1,1-Dioxide], the melting point was 200 °C (dec.). Besides, in data set [1], the IC50 was determined as 150 µM. Besides, the IC50 in data set [2] came out at 99 µM. For the same compound, in data set [3], the IC50 is 1500 nM and the “SI Pf” value is listed as 67. In addition, the IC50 in data set [4] came to 13 µM. The IC50 in data set [5] stood at 140 µM.

For `O=C(O)c1cc2c(s1)C(=O)C1=C(C2=O)S(=O)(=O)C=CN1` [Compound 12, 5,9-Dioxo-5,9-dihydro-4H-thieno[2′,3′:4,5]benzo[1,2-b][1,4]thiazine-7-carboxylic Acid 1,1-Dioxide], the melting point is 290 °C (dec.). The IC50 in data set [1] was over 290 µM. In addition, in data set [2], the IC50 is 140 µM. For the same compound, in data set [3], the IC50 stood at 35 nM and the “SI Pf” value amounted to 4000. Also, the 50% inhibitory concentration (IC50) in data set [4] was found to be 2.2 µM. Also, the IC50 in data set [5] was determined as 210 µM.

`CCOC(=O)c1cc2c(o1)C(=O)C1=C(C2=O)S(=O)(=O)CCN1` [Compound 15, Ethyl 5,9-Dioxo-3,4,5,9-tetrahydro-2H-benzofuro[5,6-b][1,4]thiazine-7-carboxylate 1,1-Dioxide]: the melting point was found to be 277 °C. Also, the half-maximal inhibitory concentration (IC50) in data set [1] is 40 µM. For the same compound, in data set [2], the IC50 was 5.1 µM. In data set [3], the IC50 was found to be 110 nM and the “SI Pf” value is on record as 46. For the same compound, the IC50 in data set [4] was 1.1 µM. Further, the IC50 in data set [5] was 4.7 µM.

For the compound `O=C(O)c1cc2c(o1)C(=O)C1=C(C2=O)S(=O)(=O)C=CN1` [Compound 17, 5,9-Dioxo-5,9-dihydro-4H-benzofuro[5,6-b][1,4]thiazine-7-carboxylic Acid 1,1-Dioxide], the melting point was 280 °C (dec.). Besides, in data set [1], the IC50 is 120 µM. Besides, the IC50 in data set [2] was 190 µM. In data set [3], the IC50 came out at 340 nM and the “SI Pf” value is 560. In data set [4], the IC50 came to 2.7 µM. For the same compound, in data set [5], the IC50 was over 300 µM.
